The nature of series [1]: Hygroscopicity / water uptake of crystalline forms of Example 1. Format: physicochemical. Conditions: for hygroscopicity: crystalline form.
In series [2] the target is T1, human Nav1.5 (Homo sapiens (Human), UniProt Q14524). The experiment in a line: Qpatch automated patch-clamp, peak Nav1.5 current inhibition, 5-Hz AF-like assay (holding potential -85 mV). Format: cell-based. The following applies: CHO-K1 cells stably expressing human Nav1.5, holding potential -85 mV, Table 5, read-out: Nav1.5 IC50 (5 Hz, AF Rate). The essentials: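 CHO-K1 cells stably expressing human Nav1.5, whole-cell automated patch-clamp at room temperature, CsF-based internal. Compounds pre-incubated 3 min each at ascending 0-30 μM; +10 to −85 mV ramp (150 ms) applied at 5 Hz for 12 s from −85 mV holding. IC50 from last-pulse peak current, vehicle-normalized for run-down.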

In series [3] the target is T1, human Nav1.5. The series is described as follows: Qpatch automated patch-clamp, peak Nav1.5 current inhibition, 1 Hz with 50 nM ATX-II (holding potential -100 mV). Format: cell-based. Conditions: CHO-K1 cells stably expressing human Nav1.5, read-out: Nav1.5 IC50 (1 Hz, ATXII). The essentials: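 CHO-K1 cells stably expressing human Nav1.5, whole-cell recording at room temperature; 3-min pre-incubation at 0–30 uM ascending, with or without 50 nM ATX-II. Pulses to −10 mV (400 ms) from −100 mV at 1 Hz for 25 s; last-pulse peak current normalized to pre-compound and DMSO run-down, IC50 fitted.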

Series [4] deals with T1, human Nav1.5. The experiment in a line: Qpatch automated patch-clamp, peak Nav1.5 current inhibition, 1 Hz sinus rate, ventricular condition (holding potential -100 mV). Conditions: CHO-K1 cells stably expressing human Nav1.5, without ATX-II. Format: cell-based. The text has this: Electrophysiology was used to measure the ionic currents in isolated living cells using automated patch-clamp recording, performed using an automated patch-clamp machine called Qpatch (Sophion Bioscience). Two different assay conditions were used to identify compounds with atrial-selective potential. The 5-Hz AF-like assay has more depolarized holding potential at −85 mV to mimic atrial resting membrane potential (RMP) and was used to identify compounds of strong rate-dependence. Active, rate-dependent compounds were then screened at 1 Hz (i.e., sinus rate) at the holding potential of −100 mV to mimic the ventricular scenario and help identify compounds with the largest potency separation or attenuation from the 5-Hz AF-like assay. Such compounds have the potential for treating AF without the QRS liability inherent to Class Ic drugs.
The sodium current conducted through a cell (via Nav1.5) or electrical signals were processed through a low-pass filter at 5 KHz, re-digitalized and acquired at 20 kHz. Series resistance was not compensated and leak subtraction was performed.
1 to 3 million Chinese Hamster Ovary cells (also known as CHO-K1) stably expressing human Nav1.5 were seeded into […] culture flasks with 25 mL medium (consisting of Gibco Dulbecco's Modified Eagle Medium as a base medium with 1% MEM non-essential amino acids, 400 μg/mL Geneticin, 5 μg/mL puromycin and 10% fetal bovine serum) 48-72 hours prior to the experiments. On the day of the experiment, cells were washed once with phosphate-buffered saline (also known as PBS; Gibco) detached with Detachin™ (Genlantis), and re-suspended in CHO—S-SFM II media (Gibco) at 200,000 cells/mL. The CHO—S-SFM II was replaced with assay solutions prior to the assays. Whole-cell currents were recorded at room temperature in the whole-cell configuration. The external aqueous assay solution (pH=7.4; Osm=307-315) contained the following (the concentration for each component is expressed in parentheses in mM): NaCl (140 mM), KCl (4 mM), CaCl2) (2 mM), MgCl2 (1 mM), 4-(2-hydroxyethyl)-1-piperazineethanesulfonic acid, also known as HEPES (10 mM), and glucose (5 mM). The internal aqueous assay solution (pH=7.2; Osm=292-295) contained the following (the concentration for each component is expressed in parentheses in mM): CsF (110 mM), CsCl (10 mM), NaCl (10 mM), HEPES (10 mM), and ethylene glycolbis(β-aminoethyl ether)-N,N,N′,N′-tetraacetic acid, also known as EGTA (10 mM).
To assess peak Nav1.5 current inhibition mimicking a ventricular condition at sinus rate with or without ATX-II (Nav1.5 IC50 (1 Hz, ATXII) (μM) or (1 Hz, Sinus Rate) (μM)), compounds were first prepared at 10 mM in DMSO, and cells were pre-incubated with test compounds at each concentration for 3 min. in an ascending order of 0, 0.37, 1.1, 3.3, 10 and 30 uM. In the assay with ATX-II (Alomone Labs), 50 nM ATX-II was included during the 3-min. compound incubation. A square pulse (−10 mV; 400 ms and a holding potential at −100 mV) was run at 1 Hz for 25 s until no further inhibition or Nav1.5 current change was observed. The percent inhibition (expressed as ([Iafter compound treatment/Ibefore compound treatment]×100%) is calculated by normalizing the peak current amplitude at the last pulse of each of the 6 compound concentrations by the amplitude before exposure to the test compound. The compiled data was further normalized by vehicle control (DMSO) to account for Nav1.5 current run-down, and IC50 was calculated by Matlab (MathWorks, USA).

T1 sequence (Q14524 whole entry): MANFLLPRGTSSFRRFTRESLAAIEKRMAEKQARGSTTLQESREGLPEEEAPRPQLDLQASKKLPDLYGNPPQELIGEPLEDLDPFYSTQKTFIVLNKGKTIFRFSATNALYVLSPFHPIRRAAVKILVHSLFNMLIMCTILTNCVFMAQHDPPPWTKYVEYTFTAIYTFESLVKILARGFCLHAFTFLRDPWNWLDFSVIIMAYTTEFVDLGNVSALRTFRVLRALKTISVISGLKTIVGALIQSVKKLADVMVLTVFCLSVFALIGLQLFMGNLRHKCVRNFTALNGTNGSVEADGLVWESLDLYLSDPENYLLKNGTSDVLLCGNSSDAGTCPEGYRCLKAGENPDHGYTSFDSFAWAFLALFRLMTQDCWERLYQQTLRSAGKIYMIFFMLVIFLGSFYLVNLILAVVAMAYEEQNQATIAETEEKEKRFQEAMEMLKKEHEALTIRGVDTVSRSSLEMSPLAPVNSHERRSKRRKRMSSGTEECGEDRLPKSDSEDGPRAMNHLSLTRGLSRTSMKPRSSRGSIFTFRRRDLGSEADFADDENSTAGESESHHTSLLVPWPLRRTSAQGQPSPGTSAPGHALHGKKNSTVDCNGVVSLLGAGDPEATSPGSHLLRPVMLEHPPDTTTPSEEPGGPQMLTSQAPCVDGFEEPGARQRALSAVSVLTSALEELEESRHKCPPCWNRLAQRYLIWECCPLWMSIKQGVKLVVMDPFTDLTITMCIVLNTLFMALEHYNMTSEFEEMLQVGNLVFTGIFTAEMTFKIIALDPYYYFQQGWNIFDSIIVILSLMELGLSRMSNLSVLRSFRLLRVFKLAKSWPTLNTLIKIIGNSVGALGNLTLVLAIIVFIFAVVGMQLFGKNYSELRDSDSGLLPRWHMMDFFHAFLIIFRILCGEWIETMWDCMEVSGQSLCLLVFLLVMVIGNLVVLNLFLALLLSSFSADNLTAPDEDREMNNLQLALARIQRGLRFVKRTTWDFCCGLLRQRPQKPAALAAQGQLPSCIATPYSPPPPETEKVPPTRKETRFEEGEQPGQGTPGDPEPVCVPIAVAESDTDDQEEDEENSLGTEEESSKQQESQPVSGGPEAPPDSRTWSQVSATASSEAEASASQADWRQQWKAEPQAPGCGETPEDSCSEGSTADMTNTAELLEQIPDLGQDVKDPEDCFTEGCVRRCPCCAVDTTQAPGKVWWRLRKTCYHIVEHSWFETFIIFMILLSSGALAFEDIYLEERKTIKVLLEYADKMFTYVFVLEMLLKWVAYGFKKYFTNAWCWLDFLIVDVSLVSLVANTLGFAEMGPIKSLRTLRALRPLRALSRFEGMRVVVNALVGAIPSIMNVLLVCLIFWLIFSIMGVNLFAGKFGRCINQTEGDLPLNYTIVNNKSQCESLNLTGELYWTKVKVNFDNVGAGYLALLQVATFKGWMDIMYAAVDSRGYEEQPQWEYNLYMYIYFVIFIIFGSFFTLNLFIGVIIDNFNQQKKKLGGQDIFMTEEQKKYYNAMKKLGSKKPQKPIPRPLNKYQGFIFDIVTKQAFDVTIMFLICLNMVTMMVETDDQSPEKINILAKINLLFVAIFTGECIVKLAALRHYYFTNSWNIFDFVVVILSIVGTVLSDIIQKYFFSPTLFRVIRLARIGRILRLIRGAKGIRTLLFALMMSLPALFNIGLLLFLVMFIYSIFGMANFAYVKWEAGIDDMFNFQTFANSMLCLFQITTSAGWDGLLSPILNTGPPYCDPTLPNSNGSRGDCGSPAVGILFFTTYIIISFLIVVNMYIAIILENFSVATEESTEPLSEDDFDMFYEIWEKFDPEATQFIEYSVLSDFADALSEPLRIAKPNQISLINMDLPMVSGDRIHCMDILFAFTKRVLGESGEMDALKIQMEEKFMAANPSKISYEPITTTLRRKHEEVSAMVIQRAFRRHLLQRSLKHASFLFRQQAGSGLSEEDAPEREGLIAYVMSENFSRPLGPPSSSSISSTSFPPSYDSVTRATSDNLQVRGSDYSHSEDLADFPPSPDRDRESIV

In the case of `C[C@](O)(CS(N)(=O)=O)c1cccc(-c2nnn(Cc3cc(OC(F)(F)F)ccc3F)n2)n1` [Modification A-3, (R)-2-(6-(2-(2-fluoro-5-(trifluoromethoxy)benzyl)-2H-tetrazol-5-yl)pyridin-2-yl)-2-hydroxypropane-1-sulfonamide], the hygroscopicity entry in series [1] is “hygroscopic and shows gel formation at 70% relative humidity and above”.

With `CC(C(C)(O)c1cccc(-c2nnn(Cc3cc(OC(F)(F)F)ccc3F)n2)n1)S(N)(=O)=O` (single isomer, unassigned) [Example 15, (2R or 2S,3R or 3S)-3-(6-(2-(2-fluoro-5-(trifluoromethoxy)benzyl)-2H-tetrazol-5-yl)pyridin-2-yl)-3-hydroxybutane-2-sulfonamide], the concentration for half-maximal inhibition (IC50) is 4.1 µM at human Nav1.5 [2], 24 µM on human Nav1.5 [3] and over 30 µM at human Nav1.5 [4].

As for `CC(O)(CS(N)(=O)=O)c1ccc(Cl)c(-c2nnn(Cc3cc(OC(F)(F)F)ccc3F)n2)c1` (single isomer, unassigned) [Example 7, (R or S)-2-(4-chloro-3-(2-(2-fluoro-5-(trifluoromethoxy)benzyl)-2H-tetrazol-5-yl)phenyl)-2-hydroxypropane-1-sulfonamide], the IC50 amounted to 1.3 µM on human Nav1.5 [2], 15 µM on human Nav1.5 [3] and 28 µM against human Nav1.5 [4].

With `CC(C(C)(O)c1cccc(-c2nnn(Cc3cc(OC(F)(F)F)ccc3F)n2)n1)S(N)(=O)=O` (single isomer, unassigned) [Example 16, (2R or 2S, 3R or 3S)-3-(6-(2-(2-fluoro-5-(trifluoromethoxy)benzyl)-2H-tetrazol-5-yl)pyridin-2-yl)-3-hydroxybutane-2-sulfonamide], the IC50 on human Nav1.5 [2] was determined as 2.8 µM; at human Nav1.5 [3] it was 4.8 µM; on human Nav1.5 [4] it was 16 µM.

Turning to `CC(O)(CS(N)(=O)=O)c1cc(F)cc(-c2nnn(Cc3cc(OC(F)(F)F)ccc3F)n2)c1` (single isomer, unassigned) [Example 24, (R or S)-2-(3-fluoro-5-(2-(2-fluoro-5-(trifluoromethoxy)benzyl)-2H-tetrazol-5-yl)phenyl)-2-hydroxypropane-1-sulfonamide], the 50% inhibitory concentration (IC50) was 2 µM at human Nav1.5 [2], 7.8 µM on human Nav1.5 [3] and over 30 µM against human Nav1.5 [4].

Turning to `CC(O)(CS(N)(=O)=O)c1nc(-c2nnn(Cc3cc(OC(F)(F)F)ccc3F)n2)ccc1F` (single isomer, unassigned) [Example 44, (R or S)-2-(3-fluoro-6-(2-(2-fluoro-5-(trifluoromethoxy)benzyl)-2H-tetrazol-5-yl)pyridin-2-yl)-2-hydroxypropane-1-sulfonamide], the results for the IC50 on human Nav1.5 [2], on human Nav1.5 [3] and against human Nav1.5 [4] were 4.6 µM, 19 µM and over 30 µM, respectively.

With `CC(O)(CS(N)(=O)=O)c1ccc(F)c(-c2nnn(Cc3cc(OC(F)(F)F)ccc3F)n2)c1` (single isomer, unassigned) [Example 9, (R or S)-2-(4-fluoro-3-(2-(2-fluoro-5-(trifluoromethoxy)benzyl)-2H-tetrazol-5-yl)phenyl)-2-hydroxypropane-1-sulfonamide], the figures for the IC50 on human Nav1.5 [2], on human Nav1.5 [3] and at human Nav1.5 [4] were 4.1 µM, over 30 µM and over 30 µM, respectively.

Regarding `C[C@](O)(CS(N)(=O)=O)c1cccc(-c2nnn(Cc3cc(OC(F)(F)F)ccc3F)n2)n1` [Modification A-1, (R)-2-(6-(2-(2-fluoro-5-(trifluoromethoxy)benzyl)-2H-tetrazol-5-yl)pyridin-2-yl)-2-hydroxypropane-1-sulfonamide], in series [1] (at 90% relative humidity), the reversible water uptake result is given as “about 0.10%”. The hygroscopicity result in series [1] was “not hygroscopic”.

Consider `CC(O)(CS(N)(=O)=O)c1ccc(Cl)c(-c2nnn(Cc3cc(OC(F)(F)F)ccc3F)n2)c1` (single isomer, unassigned) [Example 8, (R or S)-2-(4-chloro-3-(2-(2-fluoro-5-(trifluoromethoxy)benzyl)-2H-tetrazol-5-yl)phenyl)-2-hydroxypropane-1-sulfonamide], for which the values for the IC50 on human Nav1.5 [2], on human Nav1.5 [3] and against human Nav1.5 [4] were 1.3 µM, 28 µM and over 30 µM, respectively.

As to `C[C@](O)(CS(N)(=O)=O)c1cccc(-c2nnn(Cc3cc(OC(F)(F)F)ccc3F)n2)n1` [Example 1, (R)-2-(6-(2-(2-fluoro-5-(trifluoromethoxy)benzyl)-2H-tetrazol-5-yl)pyridin-2-yl)-2-hydroxypropane-1-sulfonamide], the results for the IC50 at human Nav1.5 [2], at human Nav1.5 [3] and at human Nav1.5 [4] were 3.1 µM, 19 µM and 22 µM, respectively.

Turning to `CC(O)(CS(N)(=O)=O)c1ccc(F)c(-c2nnn(Cc3cc(OC(F)(F)F)ccc3F)n2)c1` (single isomer, unassigned) [Example 10, (R or S)-2-(4-fluoro-3-(2-(2-fluoro-5-(trifluoromethoxy)benzyl)-2H-tetrazol-5-yl)phenyl)-2-hydroxypropane-1-sulfonamide], the IC50 at human Nav1.5 [2] was 1 µM; at human Nav1.5 [3] it was 11 µM; at human Nav1.5 [4] it was over 30 µM.

As for `CC(O)(CS(N)(=O)=O)c1nc(-c2nnn(Cc3cc(OC(F)(F)F)ccc3F)n2)ccc1F` (single isomer, unassigned) [Example 45, (R or S)-2-(3-fluoro-6-(2-(2-fluoro-5-(trifluoromethoxy)benzyl)-2H-tetrazol-5-yl)pyridin-2-yl)-2-hydroxypropane-1-sulfonamide], the IC50 is 4.8 µM at human Nav1.5 [2], over 30 µM at human Nav1.5 [3] and over 30 µM against human Nav1.5 [4].

With `C[C@](O)(CS(N)(=O)=O)c1cccc(-c2nnn(Cc3cc(OC(F)(F)F)ccc3F)n2)n1` [Modification A-2, (R)-2-(6-(2-(2-fluoro-5-(trifluoromethoxy)benzyl)-2H-tetrazol-5-yl)pyridin-2-yl)-2-hydroxypropane-1-sulfonamide], the hygroscopicity entry in series [1] is “hygroscopic and shows gel formation at 70% relative humidity and above”.

For `CC(O)(CS(N)(=O)=O)c1cccc(-c2ncn(Cc3cc(OC(F)(F)F)ccc3F)n2)n1` (racemic) [Rac-55 + 56, 2-(6-(1-(2-fluoro-5-(trifluoromethoxy)benzyl)-1H-1,2,4-triazol-3-yl)pyridin-2-yl)-2-hydroxypropane-1-sulfonamide], the values for the half-inhibitory concentration (IC50) on human Nav1.5 [2], on human Nav1.5 [3] and at human Nav1.5 [4] were 4.5 µM, 17 µM and over 30 µM, respectively.

The values are drawn from US20250034108A1, “SODIUM CHANNEL BLOCKERS” (NOVARTIS AG, priority 2023, published 2025).
